Test results taken from PMC6816013 (Journal of Medicinal Chemistry, 2019).
“Also recorded” adds a separate entry of the source. Where a name gives a salt, the structure may show the parent alone. Read-outs that look alike come from different tables or passages of the source.

Experiments:
[1] = test system: P. falciparum strain 3D7A; format: cell-based, Plasmodium falciparum
Cell cytotoxicity assay = format: cell-based; details: for cytotoxicity/cell activity safety window: cytotoxicity EC50 / Pf EC50
HSA = HSA (Homo sapiens, UniProt P02768); test: HSA binding (plasma protein binding); format: in vitro ADME
[2] = Intrinsic clearance in rat liver microsomes; format: in vitro ADME; details: 0.5 µM
[3] = test system: Plasmodium falciparum WT cell line; test: Growth inhibition of P. falciparum WT cell line at 48 and 72 h; format: cell-based; details: read-out: Pf WT cell line EC50 72h
[4] = test system: Plasmodium falciparum 3D7A; test: microbe, parasite or virus in culture; details: read-out: Pf EC50
[5] = aqueous solubility
[6] = ChromlogD
[7] = test system: Plasmodium falciparum 3D7A; details: read-out: Pf EC50; 3D7A asexual blood stage, 48 h [3H]-hypoxanthine assay, maximal concentration 5 μM
SRPK2 = target: T1, SRPK2 (Plasmodium falciparum, UniProt Q8IL41); test: Pull down with compound 31 or 50 attached to beads, competition with free compound; format: binding; details: competed with free analogue, Figure 4b
T1 sequence (Q8IL41 1-1268): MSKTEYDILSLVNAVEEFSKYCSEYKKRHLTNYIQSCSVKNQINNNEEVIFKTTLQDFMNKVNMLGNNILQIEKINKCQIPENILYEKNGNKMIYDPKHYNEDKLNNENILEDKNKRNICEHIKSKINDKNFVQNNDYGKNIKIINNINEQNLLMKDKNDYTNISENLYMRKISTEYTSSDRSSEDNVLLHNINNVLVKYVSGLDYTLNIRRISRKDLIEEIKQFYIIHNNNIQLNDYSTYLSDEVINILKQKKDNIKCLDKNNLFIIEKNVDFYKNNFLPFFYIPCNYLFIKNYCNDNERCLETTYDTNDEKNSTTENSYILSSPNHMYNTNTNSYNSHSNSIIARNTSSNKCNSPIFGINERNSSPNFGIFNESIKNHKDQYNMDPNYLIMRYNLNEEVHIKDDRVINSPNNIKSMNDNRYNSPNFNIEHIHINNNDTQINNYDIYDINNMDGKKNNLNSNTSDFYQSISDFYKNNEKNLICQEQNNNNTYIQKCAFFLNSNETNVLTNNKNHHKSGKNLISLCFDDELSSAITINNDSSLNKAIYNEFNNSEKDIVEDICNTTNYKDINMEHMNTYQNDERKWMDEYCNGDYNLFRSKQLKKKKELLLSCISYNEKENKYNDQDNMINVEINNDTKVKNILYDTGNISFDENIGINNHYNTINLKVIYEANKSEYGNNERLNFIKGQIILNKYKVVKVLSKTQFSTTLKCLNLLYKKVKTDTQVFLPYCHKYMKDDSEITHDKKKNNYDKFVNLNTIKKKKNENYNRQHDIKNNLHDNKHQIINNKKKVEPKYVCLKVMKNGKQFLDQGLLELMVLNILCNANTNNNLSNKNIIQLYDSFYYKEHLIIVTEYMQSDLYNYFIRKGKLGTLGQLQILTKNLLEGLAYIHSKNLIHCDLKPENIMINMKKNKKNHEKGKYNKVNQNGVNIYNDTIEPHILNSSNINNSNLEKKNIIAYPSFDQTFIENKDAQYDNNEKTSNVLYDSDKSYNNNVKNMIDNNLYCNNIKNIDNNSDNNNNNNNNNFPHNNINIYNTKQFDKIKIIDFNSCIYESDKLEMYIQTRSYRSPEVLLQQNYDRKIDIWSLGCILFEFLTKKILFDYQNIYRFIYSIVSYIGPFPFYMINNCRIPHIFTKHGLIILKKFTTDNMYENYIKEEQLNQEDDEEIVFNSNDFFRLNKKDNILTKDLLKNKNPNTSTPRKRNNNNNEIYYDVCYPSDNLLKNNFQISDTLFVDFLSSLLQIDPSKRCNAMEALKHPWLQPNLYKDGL

[8] = target: T2, serine/arginine protein kinase 2 (SRPK2 or CLK2) (Plasmodium falciparum, UniProt Q8IL41); test: Kinobeads competition binding in P. falciparum extract; details: Figure 4a, read-out: Kd^app SRPK2
T2 sequence (Q8IL41 1-1268): T1 sequence (Q8IL41 1-1268)

[9] = PRR, 10 × EC50, result in words

Sequence of HSA (P02768 25-609): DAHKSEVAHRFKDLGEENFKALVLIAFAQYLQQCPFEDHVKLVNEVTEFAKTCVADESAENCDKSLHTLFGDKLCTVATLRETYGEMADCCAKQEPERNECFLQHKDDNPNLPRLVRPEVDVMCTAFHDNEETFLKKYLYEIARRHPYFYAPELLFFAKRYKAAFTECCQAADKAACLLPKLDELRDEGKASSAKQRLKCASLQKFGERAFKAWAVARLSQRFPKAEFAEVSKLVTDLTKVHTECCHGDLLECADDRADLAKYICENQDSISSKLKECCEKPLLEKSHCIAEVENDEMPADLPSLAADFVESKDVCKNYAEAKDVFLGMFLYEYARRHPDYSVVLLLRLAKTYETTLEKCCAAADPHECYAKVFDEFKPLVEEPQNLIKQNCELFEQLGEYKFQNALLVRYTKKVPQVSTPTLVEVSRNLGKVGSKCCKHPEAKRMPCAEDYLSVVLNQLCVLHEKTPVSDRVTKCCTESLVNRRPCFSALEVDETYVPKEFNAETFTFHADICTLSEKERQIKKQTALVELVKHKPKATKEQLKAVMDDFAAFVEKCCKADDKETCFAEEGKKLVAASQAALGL

In the case of `Cc1cc(Nc2nccc(-c3sc(C4CCNCC4)nc3CN3CCCCC3)n2)ccn1` [Compound 60, N-(2-Methylpyridin-4-yl)-4-(4-(piperidin-1-ylmethyl)-2-(piperidin-4-yl)thiazol-5-yl)pyrimidin-2-amine Trihydrochloride], the “rate of killing in PRR study” value [1, 9] is reported as “potent fast-killing properties” and the “cytotoxicity/cell activity safety window” value (Cell cytotoxicity assay) is reported as 105.

With `CCc1nc(N)nc(N)c1-c1ccc(Cl)cc1` [pyrimethamine] the “rate of killing in PRR study” value [1, 9] was “moderate rate of killing”.

For `CN1CCN(c2ccc(Nc3nccc(-c4sc(C5CCNCC5)nc4-c4ccc(F)cc4)n3)cc2)CC1` [Compound 7, reference compound], the HSA binding (HSA) was 97% and the “cytotoxicity/cell activity safety window” value (Cell cytotoxicity assay) was 5.4.

For `C[C@H]1[C@H](OC(=O)CCC(=O)O)O[C@@H]2O[C@@]3(C)CC[C@H]4[C@H](C)CC[C@@H]1[C@@]24OO3` [artesunate], the “rate of killing in PRR study” value [1, 9] was “fast rate of killing”.

For `Cc1cc(Nc2nccc(-c3sc(C4CCNCC4)nc3-c3ccc(F)cc3)n2)ccn1` [Compound 31, 4-(4-(4-Fluorophenyl)-2-(piperidin-4-yl)thiazol-5-yl)-N-(2-methylpyridin-4-yl)pyrimidin-2-amine], the “rate of killing in PRR study” value [1, 9] was “extremely fast-killing effect”, the AMP (Tables 2 and 5) was 2.1e-06 cm/s and the HSA binding (HSA) was 97.8%. The “cytotoxicity/cell activity safety window” value (Cell cytotoxicity assay) was 25.

For `Cc1nnc(Nc2nccc(-c3sc(C4CCNCC4)nc3-c3ccc(F)cc3)n2)s1` [Compound 20, N-(4-(4-(4-Fluorophenyl)-2-(piperidin-4-yl)thiazol-5-yl)pyrimidin-2-yl)-5-methyl-1,3,4-thiadiazol-2-amine], the AMP (Tables 2 and 5) was 8e-07 cm/s and the HSA binding (HSA) was 92%.

Work on `Cc1csc(Nc2nccc(-c3sc(C4CCNCC4)nc3-c3ccc(F)cc3)n2)n1` [Compound 21, N-(4-(4-(4-Fluorophenyl)-2-(piperidin-4-yl)thiazol-5-yl)pyrimidin-2-yl)-4-methylthiazol-2-amine] yielded an AMP (Tables 2 and 5) of 1.5e-06 cm/s and an HSA binding (HSA) of 96%.

For `Cc1cc(Nc2nccc(-c3sc(C4CCNCC4)nc3C3CC3)n2)ccn1` [Compound 59, 4-(4-Cyclopropyl-2-(piperidin-4-yl)thiazol-5-yl)-N-(2-methylpyridin-4-yl)pyrimidin-2-amine Dihydrochloride], the Cl rat [2] was 1.8 mL/min/g, the “rate of killing in PRR study” value [1] was “potent fast-killing properties” and the AMP (PAMPA) was 1.8.

For `CN1CCC(c2nc(-c3ccc(F)c(NS(C)(=O)=O)c3)c(-c3ccnc(NCC4CC4)n3)s2)CC1` [Compound 5, reference compound], the EC50 [3] was 0.11 µM, the “rate of killing in PRR study” value [1, 9] was “slow-acting compound; also recorded: slow parasite killing kinetics” and the AMP (Tables 1 and 4) was 3.4e-05 cm/s. It also gave an AMP (Tables 2 and 5) of 3.4e-06 cm/s and an HSA binding (HSA) of 91%.

For `Fc1ccc(-c2nc(C3CCNCC3)sc2-c2ccnc(Nc3cccnn3)n2)cc1` [Compound 27, N-(4-(4-(4-Fluorophenyl)-2-(piperidin-4-yl)thiazol-5-yl)pyrimidin-2-yl)pyridazin-3-amine], the AMP (Tables 2 and 5) was 1.9e-06 cm/s and the HSA binding (HSA) was 90%.

Work on `Nc1nccc(-c2sc(C3CCNCC3)nc2-c2ccc(F)cc2)n1` [Compound 41, 4-[4-(4-Fluorophenyl)-2-(piperidin-4-yl)-1,3-thiazol-5-yl]pyrimidin-2-amine] yielded an AMP (Tables 1 and 4) of 1.3e-05 cm/s and an HSA binding (HSA) of 75%.

With `Fc1ccc(-c2nc(C3CCNCC3)sc2-c2ccnc(Nc3nncs3)n2)cc1` [Compound 19, N-(4-(4-(4-Fluorophenyl)-2-(piperidin-4-yl)thiazol-5-yl)pyrimidin-2-yl)-1,3,4-thiadiazol-2-amine] the AMP (Tables 2 and 5) was less than 1e-07 cm/s and the HSA binding (HSA) was 92%.

Molecule `OC(CNc1nccc(-c2sc(C3CCNCC3)nc2-c2ccc(F)cc2)n1)c1ccncc1` (stereo not drawn) [Compound 40, 2-({4-[4-(4-Fluorophenyl)-2-(piperidin-4-yl)-1,3-thiazol-5-yl]pyrimidin-2-yl}amino)-1-(pyridin-4-yl)ethanol] has an EC50 [4] of 1.05 µM, an AMP (Tables 2 and 5) of 1e-07 cm/s and an HSA binding (HSA) of 85%.

With `Nc1nc(-c2ccc(F)cc2)c(-c2ccnc(Nc3ccc(N4CCOCC4)cc3)n2)s1` [Compound 13, 4-[2-Amino-4-(4-fluorophenyl)-1,3-thiazol-5-yl]-N-[4-(morpholin-4-yl)phenyl]pyrimidin-2-amine] the EC50 [4] was greater than 5 µM.

In the case of `O=C1C(O)=C([C@H]2CC[C@H](c3ccc(Cl)cc3)CC2)C(=O)c2ccccc21` [atovaquone], the “rate of killing in PRR study” value [1, 9] is reported as “slow rate of killing”.

Work on “4-(4-(4-Fluorophenyl)-2-(piperidin-4-yl)thiazol-5-yl)-N-(1-(piperidin-4-yl)-1H-pyrazol-3-yl)pyrimidin-2-amine [Compound 24]” yielded a Solubility [5] of 131 µM, an AMP (Tables 2 and 5) of 3e-07 cm/s and a logD [6] of 1.29. It also gave an EC50 [7] of 3.31 µM, an HSA binding (HSA) of 93% and an EC50 (Cell cytotoxicity assay) of 100 µM.

With `Fc1ccc(-c2nc(C3CCNCC3)sc2-c2ccnc(NCCN3CCSCC3)n2)cc1` [Compound 50, 4-(4-(4-Fluorophenyl)-2-(piperidin-4-yl)thiazol-5-yl)-N-(2-thiomorpholinoethyl)pyrimidin-2-amine] the “apparent Kd SRPK2 on immobilized compounds” value (SRPK2) was “not bind to 50 attached to beads”, the HSA binding (HSA) was 90% and the Kd [8] was greater than 20 µM.

Molecule `Cc1nc(Nc2nccc(-c3sc(C4CCNCC4)nc3-c3ccc(F)cc3)n2)ccc1F` [Compound 35, N-(5-Fluoro-6-methylpyridin-2-yl)-4-(4-(4-fluorophenyl)-2-(piperidin-4-yl)thiazol-5-yl)pyrimidin-2-amine] has an AMP (Tables 2 and 5) of 3e-06 cm/s and an HSA binding (HSA) of 96%.

Work on `Cc1cc(Nc2nccc(-c3sc(C4CCNCC4)nc3-c3ccc(F)cc3)n2)nn1C` [Compound 23, N-(1,5-Dimethyl-1H-pyrazol-3-yl)-4-(4-(4-fluorophenyl)-2-(piperidin-4-yl)thiazol-5-yl)pyrimidin-2-amine] yielded an AMP (Tables 2 and 5) of 2e-06 cm/s and an HSA binding (HSA) of 93%.

`Fc1ccc(-c2nc(C3CCNCC3)oc2-c2ccnc(Nc3ccncn3)n2)cc1` [Compound 28B] showed an AMP (Tables 2 and 5) of 1.9e-06 cm/s and an HSA binding (HSA) of 89%.
